Results reported in patent US9670223B2, “Compounds with super-aspirin effects” (SOLVOTRIN THERAPEUTICS LTD., priority 2011, dated 2017).
Entries after “also recorded” stand apart in the source; their conditions may differ.

Experiments:
[1] = cited from earlier work; for % Aspirin release: in human plasma, From Reference 7
59M cells = experiment: Tumour cell-induced platelet aggregation (TCIPA), static conditions, 59M; assay type: cell-based, human; conditions: for inhibition of TCIPA induced by 59M: static, WP, 300 and 500 μM, 59M 1×10^3/ml
Description: ISAS meanwhile is hydrolysed to aspirin and salicylic acid. […] The structure of platelet-tumor cell aggregates was studied using phase-contrast microscopy (Alonso-Escolano et al., 2004; Jurasz et al., 2001). […] Aliquots of each sample were then taken for phase-contrast microscopy examination using an Olympus CKX41 microscope (Olympus America Inc., […].). Photomicrographs were captured using a digital camera and MicroFire (Olympus America Inc.) software (Alonso-Escolano et al., 2004; Jurasz et al., 2001).

HT1080 cells = experiment: Tumour cell-induced platelet aggregation (TCIPA), static conditions, HT1080; assay type: cell-based, human; conditions: static, WP, 300 and 500 μM, HT1080 2×10^5/ml
Description: Three human tumor cell lines, 59M ovarian adenocarcinoma, Caco-2 colon adenocarcinoma and HT1080 fibrocarcinoma cells, were obtained from the European Cell Culture Collection. Cell lines were cultured as monolayers in 75 ml culture flasks at 37° C. in a humidified atmosphere with 5% CO2. 59M cells and HT1080 were cultured in Dulbecco's […] (DMEM) supplemented with 10% fetal bovine serum (FBS) and gentamycin (0.05 mg/ml), penicillin (0.06 mg/ml), and streptomycin (0.01 mg/ml). Caco-2 cell line was cultured in Minimum Essential Medium (MEM) supplemented with 20% FBS and the same antibiotics as above. The cells were supplied with fresh medium and subcultured three times each week.
Washed platelet suspensions (2.5×10^11 platelets 1^−1) were prepared from blood an mixed with the anticoagulant sodium citrate (0.315% final concentration).
The interactions between platelets and tumor cells were measured by light aggregometry (Alonso-Escolano et al., 2004; Jurasz et al., 2001b; Radomski et al., 1991). Briefly, washed platelet samples (2.5×10^8/ml) were placed in an eight channel PAP 8 aggregometer (BIO/DATA CORPORATION, Horsham, Pa., U.S.A.) and incubated for 10 min at 37° C., with stirring at 900 r.p.m., prior to the addition of aggregating agents. […] TCIPA was initiated by the addition of cancer cells, and monitored by Aggro-Link software for at least 30 min. For experiments using inhibitors, aggregation was initiated after 10 min preincubation with these compounds.
To study the ability of the aspirin pro-drugs to inhibit TCIPA in WP cancer cell lines such as HT1080 cells (2×10^5/ml), CaCo2 cells (1.5×10^3/ml) or 59M cells (1×10^3/ml) were used in the presence or absence of aspirin nicotinate (ST0702), ISAS, orthonitrate and metanitrate at 300 and 500 μM. Platelet aggregation was initiated in washed platelets (WP) using HT1080 cells (2×10^5/ml), CaCo2 cells (1.5×10^3/ml) or 59M cells (1×10^3/ml). In addition, regular aspirin (300 and 500 uM) was used as control. Results were expressed in percent changes in maximal light transmission, with 100% representing light transmission of platelet medium alone. ST0702 is hydrolyzed by plasma esterases along two pathways liberating both aspirin and 5-nicotinate salicylate (ST0702 salicylate)(metabolite). The latter is further processed to isosorbide-5-nicotinate and eventually to nicotinic acid. The orthonitrate and metanitrate compounds liberate aspirin and nitric oxide (NO). ISAS meanwhile is hydrolysed to aspirin and salicylic acid. Aspirin (300 and 500 μM) was used in control experiments. Results were expressed in percent changes in maximal light transmission, with 100% representing light transmission of platelet medium alone. Further experiments were performed with ST0702 salicylate (500 μM).

TxB2 = TxB2 suppression after single oral gavage dose; assay type: in vivo, cynomolgus monkey; conditions: Phase 2A, single oral gavage, ST0702 9.6 mg/kg, aspirin 4.2 mg/kg, 1 and 24 hours post dosing
washed platelets (WP) = experiment: Collagen-induced platelet aggregation in washed platelets (light aggregometry); assay type: cell-based, human; parameters: IC50: unit of the concentration uncertain; conditions: for IC50: inhibition of platelet aggregation in response to collagen (5 (unit uncertain)), washed platelets; for effect of eserine on inhibition of collagen-induced aggregation in WP: physostigmine (eserine) 10 μM
Description: PRP and WP (2.5×10^8 platelets ml^−1) were prepared from blood. Briefly 36 ml whole blood was collected into 4 ml of 3.15% sodium citrate; this was centrifuged at 250 ¥g for 20 min (with gentle acceleration and deceleration). At this point PRP, which had separated from white blood cells and red blood cells, was gently removed. When WP were required this PRP was centrifuged at 700 g for 10 min (with gentle acceleration and deceleration) in the presence of prostacyclin. The platelet-poor plasma (PPP) was removed and the platelet pellet was washed three times with Tyrode's buffer, before being re-suspended in Tyrode's buffer to a concentration of 2.5 ¥108 platelets/ml.
Platelet aggregation was measured by light aggregometry. […] Aggregation was initiated by the addition of agonists, and monitored by Aggro-Link software for at least 6 min.
To study the aggregatory potency of ADP, the concentration-response (0.3-10 μM) curves were generated. Collagen at different concentrations (2-5 μg/ml) was also used to induce platelet aggregation. Submaximal concentrations of agonists, i.e. the concentrations that gave approximately 95% of the maximal aggregation were used to study the effects of inhibitors of aggregation. Aspirin and aspirin prodrugs was incubated for various intervals prior to the addition of aggregating agents.
To study the involvement of plasma BuChE in the activation of ST0701, purified BuChE (3 U/ml) was incubated with WP for 5 min in the aggregometer with stirring at 900 r.p.m. before the addition of the test compounds ST0701 which was incubated with the WP for a further 10 min, prior to the addition of collagen (5 ug/ml).
Eserine (in DMSO, 10 μM, giving a final concentration≦0.25% DMSO, which pilot studies had determined not to affect platelet aggregation) was preincubated with PRP or WP for 5 min in the aggregometer with stirring at 900 r.p.m. before the addition of test compounds (ST0701-05), which were incubated in PRP or WP for a further 10 min prior to the addition of an agonist (10 μM ADP or 5 μg/ml Collagen) to induce platelet aggregation.
Phenylmethylsulphonylfluoride (PMSF) 20, 50 and 100 μM dissolved in EtOH (<0.2% EtOH, which pilot studies had determined not to affect platelet aggregation) was preincubated in WP in the aggregometer for 5 min with stirring at 900 r.p.m. before the addition of test compound ST0702 to the WP, which was further incubated for 10 min prior to the addition of collagen (2 μg/ml) to induce platelet aggregation.

Row | SMILES | % Aspirin release [1] | inhibition of TCIPA induced by 59M (59M cells) | inhibition of TCIPA induced by 59M (59M cells; listed as aspirin) | inhibition of TCIPA induced by HT1080 (HT1080 cells) | inhibition of TCIPA induced by HT1080 (HT1080 cells; listed as aspirin) | TxB2 suppression (TxB2 levels as percentage of baseline), in words (TxB2) | IC50 (washed platelets (WP); Homo sapiens, Platelet) [µM] | IC50 (washed platelets (WP)) [µM] | effect of eserine on inhibition of collagen-induced aggregation in WP (washed platelets (WP)) | aspirin released in vitro ([1]; human plasma solution / in-vitro, of available (stoichiometric) aspirin, listed as ISANA) [%] | effect on TCIPA when tumour cells were preincubated with compound (59M cells; 59M cells preincubated) | effect of ST0702 on collagen-induced aggregation in WP after PMSF pretreatment (washed platelets (WP); PMSF 50 μM, 20 μM, not significant) | effect of ST0702 on collagen-induced aggregation in WP after PMSF pretreatment (washed platelets (WP); PMSF 100 μM, ST0702 200 μM (200-300 μM elsewhere in the source), collagen 2 μg/ml)
1 | CC(=O)Oc1ccccc1C(=O)O [Aspirin] | 100% | did not exert any significant effect | did not exert a significant effect | did not exert any significant effect | did not exert a significant effect | effective | 35 | 34 | did not affect the inhibitory actions |  |  |  | 
2 | CC(=O)Oc1ccccc1C(=O)O[C@H]1CO[C@H]2[C@@H]1OC[C@H]2OC(=O)c1cccnc1 [ST0702, isosorbide-2-aspirinate-5-nicotinate] | 30-45% | consistently inhibited TCIPA |  | consistently inhibited TCIPA |  | effective | 154 |  | not abolished | 40 | no effect on TCIPA | slightly attenuated | significantly attenuated; also recorded: abolished
